In US12036267B2 (BICT S.R.L., priority 2017, dated 2024):

Key:
S. aureus = assay: Antimicrobial activity (MIC / FIC index) of extracts and nisin; type: cell-based; details: nisin alone
Procedure: (§1) The antimicrobial activity of the composition according to the invention has been assessed in relation to gram-positive and gram-negative bacteria, as well as fungi and yeast, by means of in vitro susceptibility testing with the antimicrobial dilution method (CLSI protocols—Clinical and Laboratory Standards Institute), as a result of which the MIC (Minimum Inhibitory Concentration) was determined for each of the microorganisms in question.
(§2) For all the tests carried out, a positive control for the antimicrobial activity was carried out by using fluconazole (for fungi and yeasts) and ceftriaxone (for bacterial strains) and a negative control (no compounds) in which the correct microbial growth was assessed.
(§3) The FIC index is determined using the following formula:
(§4) FIC Index>1=> no synergistic effect
(§5) In this example, the antimicrobial activity of the individual natural extracts was first assessed as follows:
(§6) The antimicrobial activity of the individual natural extracts was then assessed in association with the composition according to the invention in Example 8:
(§7) The interaction of the composition in Example 8 with other natural antimicrobial peptides, such as nisin, was assessed.
(§8) After determining the antimicrobial activity of nisin alone, the antimicrobial activity of nisin was assessed in association with the composition according to the invention: […]

E. coli = assay: as above; type: cell-based; details: nisin alone
Procedure: as §1, §2, §3, §4, §5, §6, §7, §8

## nisin
S. aureus
  MIC: S. aureus - 17 UI/ml
E. coli
  MIC: E. coli - 18750 UI/ml
